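Growth conditions: 96-well plates. Treatment: test compound, 48 hours, 5 concentrations. Analysis: linear interpolation between bracketing concentrations; unreached endpoints set to highest concentration. Abbreviation: GI50, concentration required for 50% inhibition of growth. The concentration for full growth arrest is given as TGI.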
Legend:
Test in all cases: NCI tumour cell line growth inhibition, 48 h
786-0 renal = tested on: 786-0 renal
A498 renal = tested on: A498 renal
A549 NSCLC = tested on: A549 NSCLC
ACHN renal = tested on: ACHN renal
BT-549 breast = tested on: BT-549 breast
CAKI-1 renal = tested on: CAKI-1 renal
CCRF-CEM leukemia = tested on: CCRF-CEM leukemia
COLO 205 colon = tested on: COLO 205 colon
DU-145 prostate = tested on: DU-145 prostate
EKVX NSCLC = tested on: EKVX NSCLC
HCC-2998 colon = tested on: HCC-2998 colon
HCT-116 colon = tested on: HCT-116 colon
HCT-15 colon = tested on: HCT-15 colon
HL-60(TB) leukemia = tested on: HL-60(TB) leukemia
HOP-62 NSCLC = tested on: HOP-62 NSCLC
HOP-92 NSCLC = tested on: HOP-92 NSCLC
HS 578T breast = tested on: HS 578T breast
HT29 colon = tested on: HT29 colon
IGROV1 ovarian = tested on: IGROV1 ovarian
K-562 leukemia = tested on: K-562 leukemia
KM12 colon = tested on: KM12 colon
LOX IMVI melanoma = tested on: LOX IMVI melanoma
M14 melanoma = tested on: M14 melanoma
MALME-3M melanoma = tested on: MALME-3M melanoma
MCF7 breast = tested on: MCF7 breast
MDA-MB-231 breast = tested on: MDA-MB-231 breast
MDA-MB-435 = tested on: MDA-MB-435
MOLT-4 leukemia = tested on: MOLT-4 leukemia
NCI-H226 lung = tested on: NCI-H226 lung
NCI-H23 lung = tested on: NCI-H23 lung
NCI-H460 lung = tested on: NCI-H460 lung
NCI-H522 lung = tested on: NCI-H522 lung
NCI/ADR-RES ovarian = tested on: NCI/ADR-RES ovarian
OVCAR-3 ovarian = tested on: OVCAR-3 ovarian
OVCAR-4 ovarian = tested on: OVCAR-4 ovarian
OVCAR-5 ovarian = tested on: OVCAR-5 ovarian
OVCAR-8 ovarian = tested on: OVCAR-8 ovarian
PC-3 prostate = tested on: PC-3 prostate
RPMI-8226 leukemia = tested on: RPMI-8226 leukemia
RXF 393 renal = tested on: RXF 393 renal
SF-268 CNS = tested on: SF-268 CNS
SF-295 CNS = tested on: SF-295 CNS
SF-539 CNS = tested on: SF-539 CNS
SK-MEL-2 melanoma = tested on: SK-MEL-2 melanoma
SK-MEL-28 melanoma = tested on: SK-MEL-28 melanoma
SK-MEL-5 melanoma = tested on: SK-MEL-5 melanoma
SK-OV-3 ovarian = tested on: SK-OV-3 ovarian
SN12C renal = tested on: SN12C renal
SNB-19 CNS = tested on: SNB-19 CNS
SNB-75 CNS = tested on: SNB-75 CNS
SR leukemia = tested on: SR leukemia
SW-620 colon = tested on: SW-620 colon
T-47D breast = tested on: T-47D breast
TK-10 renal = tested on: TK-10 renal
U251 CNS = tested on: U251 CNS
UACC-257 melanoma = tested on: UACC-257 melanoma
UACC-62 melanoma = tested on: UACC-62 melanoma
UO-31 renal = tested on: UO-31 renal

Nc1nc(-c2ccc(F)cc2)c(-c2ccc3ncccc3n2)s1 showed a GI50 (786-0 renal) of 16.9 µM, a TGI (786-0 renal) greater than 25 µM and a GI50 (A498 renal) of 3.83 µM. It also gave a TGI (A498 renal) of 19.4 µM, a GI50 (A549 NSCLC) of 13.7 µM and a TGI (A549 NSCLC) greater than 25 µM. For the same compound, the GI50 (ACHN renal) was 8.33 µM, the TGI (ACHN renal) was greater than 25 µM and the GI50 (BT-549 breast) was 16.1 µM. It also gave a TGI (BT-549 breast) greater than 25 µM, a GI50 (CAKI-1 renal) of 9.27 µM and a TGI (CAKI-1 renal) greater than 25 µM. The GI50 (CCRF-CEM leukemia) was greater than 22.1 µM, the TGI (CCRF-CEM leukemia) was greater than 25 µM and the GI50 (COLO 205 colon) was greater than 25 µM. It also gave a TGI (COLO 205 colon) greater than 25 µM, a GI50 (DU-145 prostate) of 14.1 µM and a TGI (DU-145 prostate) greater than 25 µM. The GI50 (EKVX NSCLC) was 11.2 µM, the TGI (EKVX NSCLC) was greater than 25 µM and the GI50 (HCC-2998 colon) was greater than 25 µM. It also gave a TGI (HCC-2998 colon) greater than 25 µM, a GI50 (HCT-116 colon) greater than 25 µM and a TGI (HCT-116 colon) greater than 25 µM. It also gave a GI50 (HCT-15 colon) of 14.1 µM, a TGI (HCT-15 colon) greater than 25 µM and a GI50 (HL-60(TB) leukemia) greater than 25 µM. It also gave a TGI (HL-60(TB) leukemia) greater than 25 µM, a GI50 (HOP-62 NSCLC) of 24.9 µM and a TGI (HOP-62 NSCLC) greater than 25 µM. For the same compound, the GI50 (HOP-92 NSCLC) was 0.268 µM, the TGI (HOP-92 NSCLC) was 24.6 µM and the GI50 (HS 578T breast) was 9.61 µM. The TGI (HS 578T breast) was greater than 25 µM, the GI50 (HT29 colon) was 16.3 µM and the TGI (HT29 colon) was greater than 25 µM. It also gave a GI50 (IGROV1 ovarian) of 5.44 µM, a TGI (IGROV1 ovarian) greater than 20.9 µM and a GI50 (K-562 leukemia) greater than 18.5 µM. The TGI (K-562 leukemia) was greater than 25 µM, the GI50 (KM12 colon) was greater than 25 µM and the TGI (KM12 colon) was greater than 25 µM. The GI50 (LOX IMVI melanoma) was 18 µM, the TGI (LOX IMVI melanoma) was greater than 25 µM and the GI50 (M14 melanoma) was greater than 25 µM. For the same compound, the TGI (M14 melanoma) was greater than 25 µM, the GI50 (MALME-3M melanoma) was 19.6 µM and the TGI (MALME-3M melanoma) was greater than 25 µM. For the same compound, the GI50 (MCF7 breast) was 9 µM, the TGI (MCF7 breast) was greater than 25 µM and the GI50 (MDA-MB-231 breast) was greater than 25 µM. For the same compound, the TGI (MDA-MB-231 breast) was greater than 25 µM, the GI50 (MDA-MB-435) was greater than 25 µM and the TGI (MDA-MB-435) was greater than 25 µM. For the same compound, the GI50 (MOLT-4 leukemia) was 17.4 µM, the TGI (MOLT-4 leukemia) was greater than 25 µM and the GI50 (NCI-H226 lung) was 11.8 µM. It also gave a TGI (NCI-H226 lung) greater than 25 µM, a GI50 (NCI-H23 lung) of 15.6 µM and a TGI (NCI-H23 lung) greater than 25 µM. For the same compound, the GI50 (NCI-H460 lung) was 8.7 µM, the TGI (NCI-H460 lung) was greater than 25 µM and the GI50 (NCI-H522 lung) was 8.31 µM. It also gave a TGI (NCI-H522 lung) greater than 25 µM, a GI50 (NCI/ADR-RES ovarian) of 21.7 µM and a TGI (NCI/ADR-RES ovarian) greater than 25 µM. It also gave a GI50 (OVCAR-3 ovarian) of 12.7 µM, a TGI (OVCAR-3 ovarian) greater than 25 µM and a GI50 (OVCAR-4 ovarian) of 16.6 µM. For the same compound, the TGI (OVCAR-4 ovarian) was greater than 25 µM, the GI50 (OVCAR-5 ovarian) was 14.1 µM and the TGI (OVCAR-5 ovarian) was greater than 25 µM. It also gave a GI50 (OVCAR-8 ovarian) of 15.6 µM, a TGI (OVCAR-8 ovarian) greater than 25 µM and a GI50 (PC-3 prostate) of 13.5 µM. For the same compound, the TGI (PC-3 prostate) was greater than 25 µM, the GI50 (RPMI-8226 leukemia) was greater than 19.8 µM and the TGI (RPMI-8226 leukemia) was greater than 25 µM. The GI50 (RXF 393 renal) was 12.3 µM, the TGI (RXF 393 renal) was greater than 25 µM and the GI50 (SF-268 CNS) was 16.5 µM. The TGI (SF-268 CNS) was greater than 25 µM, the GI50 (SF-295 CNS) was greater than 21 µM and the TGI (SF-295 CNS) was greater than 25 µM. For the same compound, the GI50 (SF-539 CNS) was 14.4 µM, the TGI (SF-539 CNS) was greater than 25 µM and the GI50 (SK-MEL-2 melanoma) was greater than 25 µM. The TGI (SK-MEL-2 melanoma) was greater than 25 µM, the GI50 (SK-MEL-28 melanoma) was greater than 25 µM and the TGI (SK-MEL-28 melanoma) was greater than 25 µM. For the same compound, the GI50 (SK-MEL-5 melanoma) was 13.1 µM, the TGI (SK-MEL-5 melanoma) was greater than 25 µM and the GI50 (SK-OV-3 ovarian) was 6.82 µM. For the same compound, the TGI (SK-OV-3 ovarian) was greater than 25 µM, the GI50 (SN12C renal) was 10.1 µM and the TGI (SN12C renal) was greater than 25 µM. The GI50 (SNB-19 CNS) was greater than 25 µM, the TGI (SNB-19 CNS) was greater than 25 µM and the GI50 (SNB-75 CNS) was 5.04 µM. For the same compound, the TGI (SNB-75 CNS) was greater than 25 µM, the GI50 (SR leukemia) was greater than 25 µM and the TGI (SR leukemia) was greater than 25 µM. For the same compound, the GI50 (SW-620 colon) was greater than 25 µM, the TGI (SW-620 colon) was greater than 25 µM and the GI50 (T-47D breast) was 4.32 µM. It also gave a TGI (T-47D breast) greater than 25 µM, a GI50 (TK-10 renal) of 5.62 µM and a TGI (TK-10 renal) of 17.1 µM. It also gave a GI50 (U251 CNS) greater than 24.1 µM, a TGI (U251 CNS) greater than 25 µM and a GI50 (UACC-257 melanoma) greater than 25 µM. The TGI (UACC-257 melanoma) was greater than 25 µM, the GI50 (UACC-62 melanoma) was greater than 23.2 µM and the TGI (UACC-62 melanoma) was greater than 25 µM. It also gave a GI50 (UO-31 renal) of 4.68 µM and a TGI (UO-31 renal) greater than 25 µM.

Source: PubChem BioAssay (NCI)
